Patent US20180228894A1, “INHIBITION OF CXCR4 SIGNALING IN CANCER IMMUNOTHERAPY” (Cambridge Enterprise Limited, priority 2013, published 2018)
Entries after “also recorded” stand apart in the source; their conditions may differ.

Assays:
[1] = test system: autochthonous mouse pancreatic tumors (KPC model); experiment: In vitro T cell exclusion assay: vibratome sections of KPC pancreatic tumors overlaid with activated T cells; format: cell-based; details: culture in the presence of the substance, 37° C. for up to 120 min
From the text: This assay tests the mechanism of T cell exclusion from the vicinity of the cancer cells. It also allows screening of drugs and tumors for potential efficacy. This in vitro assay may also be used to screen other drugs (anti-CXCL12, anti-CXCR4, other CXCR4-directed small molecules) that may interfere with the CXCL12/CXCR4 interaction.
300 um vibratome sections of fresh autochthonous mouse pancreatic tumors (the mouse KPC model of Hingorani et al., Cancer Cell 2005) are overlaid with labeled mouse splenic T cells that have been activated in vitro for several days with anti-CD3 and IL-2 (this generates a T cell population that is like the effector T cells that normally infiltrate inflamed tissues/tumors). The tumor tissue+labeled T cells are then cultured at 37° C. for up to 120 min, after which the non-infiltrated T cells are washed off. The vibratome sections are then fixed for staining (p53 which identifies cancer cells) and SHG (to visualize collagen/stromal regions) by confocal microscopy.

PDA [2] = experiment: PDA tumor volume by ultrasound in KPC / KPCD mice, 6 day treatment; format: in vivo, mouse
Experimental: (§1) All experiments were performed in accordance with institutional guidelines and were approved by the UK Home Office and the animal ethics committee of CRUK and the University of Cambridge. Mice were housed at a 12-hour light/12-hour dark cycle and received diet and water ad libitum. The generation of LSL-[…]; LSL10 Tp53R172H/+; Pdx-1-Cre (KPC) and FAP-DTR BAC transgenic mice has been described previously (8, 10). These strains were crossed to generate KPCD (Kras; p53; Cre; DTR) mice. KPC and KPCD mice were screened for tumors from an age of 60 days by abdominal palpation. Tumors were verified by high-resolution ultrasound (Vevo 2100, VisualSonics). Mice with average tumor diameters between 5-8 mm (corresponding to approx. 200 mm3 volume) were enrolled on 6 day treatment studies with 2 follow-up tumor size measurements (day 3 and 6). Where possible, tumors were assessed at multiple angles and the volumes averaged. KPC(−/+DTR Tg) mice were treated every 48 h with 25 ng/g DTx (List Biologicals) in PBS, […] α-PD1 (10F.9G2, Biolegend), 100 μg α-CTLA-4 (9H10, Biolegend) or isotype control antibody by intraperitoneal injection. […] For T-cell depletion studies mice received […] each of α-CD4 (GK1.5, Biolegend) and α-CD8α (53-6.7, Bioloegend) or respective isotype control antibodies for 3 consecutive […] before treatment start and on days 2 and 5 during the course of treatment via intraperitoneal injection.

LL2/OVA tumors = details: AMD3100 30 mg/ml osmotic pump; C57BL/6 and Rag2−/− mice
Experimental: C57BL/6 were purchased from Charles River UK and Rag2−/− mice were bred at the local establishment. 2×10^5 LL2/OVA cells were injected subcutaneously in RPMI with 1% heat inactivated mouse serum. Tumor sizes were measured using calipers, measuring the long (L) and short (S) dimension, and tumor volumes were calculated using the equation: volume=(L×S2)/2.

PDA [3] = experiment: Immunofluorescent confocal microscopy / ARIOL scanning of KPC tumor sections after treatment; format: in vivo, mouse
Experimental: as §1
5 μm frozen tissue sections were fixed in 4% paraformaldehyde (PFA) for 10 minutes at room temperature. Slides were blocked for one hour in 10% donkey serum (Sigma Aldrich)/0.2% Triton x-100. Primary antibodies were incubated overnight at 4° C. Following washing, slides were incubated for one hour at room temperature with appropriate secondary antibody and DAPI counterstain. Slides were subsequently incubated in 0.3M glycine for 10 minutes to reduce autofluorescence and mounted in Hydromount aqueous mounting medium (Fisher Scientific). Images were acquired on a Leica SP5 tandem confocal microscope. For analysis of p53 and Treg staining slides were scanned and analyzed using the automated ARIOL XT system.

[4] = AMD3100 in combination with α-PD-L1, 24 h treatment

| Molecule | Localization of T cells in tumor sections [1] | Tumor growth (PDA [2]; AMD3100 by osmotic pump, presence or absence of depleting antibodies to CD4+ and CD8+ T cells) | Decline in PDA volume (PDA [2]; higher dose AMD3100 in combination with α-PD-L1, by 48 h, maintained for 6 days) | PDA growth (PDA [2]; higher dose of AMD3100 (osmotic pump)) | Interaction of AMD3100 with α-PD-L1 (PDA [2]; murine PDA, combination) | Control of subcutaneous LL2 tumors (tumor volume) (LL2/OVA tumors) | Composition of residual tumors (PDA [3]; AMD3100 alone, ARIOL scanning) | Proliferating Ki67+ cells (PDA [3]; AMD3100 and anti-PD-L1, 6 days (FIG. 11, panel E)) | Foxp3+ cells in the tumors (PDA [3]; AMD3100 high in combination with α-PD-L1, 24 h) | Accumulation of T cells amongst cancer cells (PDA [3]; [4]) | Frequency of p53+ LOH cancer cells (PDA [3]; [4]) | Composition of residual tumors (PDA [3]; AMD3100 with α-PD-L1, ARIOL scanning) | Presence of p53+ LOH cancer cells in tumors (PDA [3]; AMD3100 with α-PD-L1, after 6 days of treatment) | Accumulation of T cells amongst cancer cells (PDA [3]; single agent, 24 h treatment) | Presence of p53+ LOH cancer cells in tumors (PDA [3]; single agent, after 6 days of treatment) |
| --- | --- | --- | --- | --- | --- | --- | --- | --- | --- | --- | --- | --- | --- | --- | --- |
| Z-VAD | T cells accumulating also amongst cancer cells | – | – | – | – | – | – | – | – | – | – | – | – | – | – |
| c1cc(CN2CCCNCCNCCCNCC2)ccc1CN1CCCNCCNCCCNCC1 [AMD3100, 1,1′-[1,4-phenylenebis(methylene)]bis [1,4,8,11-tetraazacyclotetradecane]] | T cells to be found in both stromal and cancer cell regions | slowed by AMD3100 in a T cell-dependent manner | 15% | almost completely arrested PDA growth | remarkable synergistic interaction | T cell-dependent control of subcutaneous immunogenic LL2 tumors | comprised of premalignant CK19+ epithelial cells and CD45+ inflammatory cells | diminution in proliferating Ki67+ cells | increase | amplified this effect; also recorded: induce the accumulation of CD3+ T cells in cancer-cell-containing regions of PDA | decreased the frequency of p53+ LOH cells; also recorded: loss of cancer cells | comprised of premalignant CK19+ epithelial cells and CD45+ inflammatory cells | rare | increased the accumulation of T cells; also recorded: exclusion is overcome | rare |
